Measurements published in paper PMC9369295, “Key Residues Affecting Binding Affinity of Sirex noctilio Fabricius Odorant-Binding Protein (SnocOBP9) to Aggregation Pheromone” (International Journal of Molecular Sciences, 2022).
Entries after “also recorded” stand apart in the source; their conditions may differ. Where two headings read alike, the source gives them in different places.

Legend:
SnocOBP9WT = SnocOBP9WT (Sirex noctilio, UniProt A0A857N3E7); experiment: Fluorescence competitive binding assay with 1-NPN probe, wild-type protein
Chain of SnocOBP9WT (A0A857N3E7 entry or part of it): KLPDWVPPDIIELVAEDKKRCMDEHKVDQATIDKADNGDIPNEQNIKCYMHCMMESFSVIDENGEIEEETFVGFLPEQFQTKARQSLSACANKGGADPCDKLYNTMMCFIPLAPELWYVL

SnocOBP9M54A = SnocOBP9M54A (Sirex noctilio, UniProt A0A857N3E7, M75A); experiment: Fluorescence binding assay with 1-NPN probe, mutant M54A
Chain of SnocOBP9M54A (A0A857N3E7 entry or part of it M75A): as the sequence (A0A857N3E7 entry or part of it) above, with M54A counted along it
Description: (§1) To measure the binding affinity of the ligand to recombinant SnocOBP9, 1-NPN was selected as a fluorescent probe. Eleven host volatiles ((−)-Limonene, (+)-Limonene, 3-Carene, Alpha-Pinene and Beta-Pinene, Camphene, Beta-Myrcene, Beta-Ocimene, Sabinene, Hexanal and Eucalyptol), three insect pheromones ((Z)-3-Decen-ol, (Z)-4-Decen-ol and (E, E)-2,4-decadienal) and six symbiotic fungal volatile (Cyclopentanone, Geraniol 2-Hexene, (−)-Globulol, Linalol and 1-(3-ethylphenyl)ethenone) compounds were selected to bind with recombinant SnocOBP9. A multi-scan Spectrum Molecular Device Spectra Max i3 Fluorescence Spectrophotometer (Thermo Scientific, Wilmington, DE, USA) was used to conduct fluorescence competitive binding assays with an excitation wavelength of 337 nm. The emission spectra were recorded between 390 and 500 nm. The parameters were selected such that the slit widths for both excitation and emission were 10 nm. […] Intensity values corresponding to the maximum fluorescence emission were plotted against the free ligand concentrations to calculate the dissociation constant. Assuming the activity of the protein was 100%, and the stoichiometric ratio between the protein and the ligand was 1:1 when saturated, the bound ligand was determined from the fluorescence intensity value. The K1-NPN value was calculated by linearizing the curve using Scatchard plots. […]

SnocOBP9F57A = SnocOBP9F57A (Sirex noctilio, UniProt A0A857N3E7, F78A); experiment: Fluorescence binding assay with 1-NPN probe, mutant F57A
Chain of SnocOBP9F57A (A0A857N3E7 entry or part of it F78A): as the sequence (A0A857N3E7 entry or part of it) above, with F57A counted along it
Description: as §1

SnocOBP9F71A = SnocOBP9F71A (Sirex noctilio, UniProt A0A857N3E7, F92A); experiment: Fluorescence binding assay with 1-NPN probe, mutant F71A
Chain of SnocOBP9F71A (A0A857N3E7 entry or part of it F92A): as the sequence (A0A857N3E7 entry or part of it) above, with F71A counted along it
Description: as §1

SnocOBP9F74A = SnocOBP9F74A (Sirex noctilio, UniProt A0A857N3E7, F95A); experiment: Fluorescence binding assay with 1-NPN probe, mutant F74A
Chain of SnocOBP9F74A (A0A857N3E7 entry or part of it F95A): as the sequence (A0A857N3E7 entry or part of it) above, with F74A counted along it
Description: as §1

SnocOBP9L116A = SnocOBP9L116A (Sirex noctilio, UniProt A0A857N3E7, L137A); experiment: Fluorescence binding assay with 1-NPN probe, mutant L116A
Chain of SnocOBP9L116A (A0A857N3E7 entry or part of it L137A): as the sequence (A0A857N3E7 entry or part of it) above, with L116A counted along it
Description: as §1

[1] = protein and 1-NPN both 2 μM, ligand titrated to 1–20 μM, read-out: IC50

| IC50 (SnocOBP9WT; [1]) [µM] | SMILES | IC50 (SnocOBP9WT) [µM] | other results |
| --- | --- | --- | --- |
| > 20 | CCc1cccc(C(C)=O)c1 [1-(3-ethylphenyl)ethenone] | – | – |
| – | c1ccc(Nc2cccc3ccccc23)cc1 [1-NPN, N-phenyl-1-naphthylamine, reference compound] | – | Kd (SnocOBP9WT): 6.87 ± 0.73 µM; Kd (SnocOBP9M54A): 7.61 ± 0.92 µM; Kd (SnocOBP9F57A): 4.49 ± 0.82 µM; Kd (SnocOBP9F71A): 1.27 ± 2.42 µM; Kd (SnocOBP9F74A): 18.4 ± 1.66 µM; Kd (SnocOBP9L116A): 17.5 ± 2.41 µM |
| > 20 | CC=CCCC [2-Hexene] | – | – |
| > 20 | CC1=CCC2C(C1)C2(C)C (stereo not shown) [3-Carene] | – | – |
| – | C=C(C)[C@H]1CC=C(C)CC1 [(+)-Limonene] | 6.09 ± 1.43 | Ki (SnocOBP9WT): 4.87 ± 0.94 µM |
| > 20 | CCCCC/C=C/C=C/C=O [(E, E)-2,4-Decadienal] | – | – |
| > 20 | CCCCC/C=C\CCCO [(Z)-4-Decen-ol] | – | – |
| > 20 | C[C@@H]1CC[C@@H]2[C@@H]1[C@H]1[C@@H](CC[C@@]2(C)O)C1(C)C [(−)-Globulol] | – | – |
| – | C=C(C)[C@@H]1CC=C(C)CC1 [(−)-Limonene] | 6.95 ± 0.61 | Ki (SnocOBP9WT): 5.5 ± 0.49 µM |
| – | CC1=CCC2CC1C2(C)C (stereo not drawn) [Alpha-Pinene] | > 20 | – |
| > 20 | C=CC(=C)CCC=C(C)C [Beta-Myrcene] | – | – |
| > 20 | C=C/C(C)=C/CC=C(C)C [Beta-Ocimene] | – | – |
| – | C=C1CCC2CC1C2(C)C (stereo not drawn) [Beta-Pinene] | > 20 | – |
| > 20 | C=C1C2CCC(C2)C1(C)C (stereo not shown) [Camphene] | – | – |
| > 20 | O=C1CCCC1 [Cyclopentanone] | – | – |
| > 20 | CC12CCC(CC1)C(C)(C)O2 [Eucalyptol] | – | – |
| – | CC(C)=CCC/C(C)=C/CO [Geraniol] | > 20 | – |
| – | CCCCCC=O [Hexanal] | > 20 | – |
| – | C=CC(C)(O)CCC=C(C)C (stereo not shown) [Linalool] | > 20 | – |
| > 20 | C=C1CCC2(C(C)C)CC12 (stereo not shown) [Sabinene] | – | – |

| SMILES | IC50 (SnocOBP9WT; [1]) [µM] | IC50 (SnocOBP9WT) [µM] | other results |
| --- | --- | --- | --- |
| CCCCCC/C=C\CCO [Z3D, (Z)-3-decen-ol] | 1.92 ± 0.14 | – | Ki (SnocOBP9WT; protein and 1-NPN both 2 μM, ligand titrated to 1–20 μM, read-out: Ki): 1.53 ± 0.09 µM; binding affinity (fluorescence competitive assay) (SnocOBP9M54A; mutant MET54 to ALA, Ki could not be calculated): no binding affinity; also recorded: never decreased below 50%; Ki (SnocOBP9F57A): 5.61 ± 0.5 µM; binding affinity (fluorescence competitive assay) (SnocOBP9F71A; mutant PHE71 to ALA, Ki could not be calculated): no binding affinity; also recorded: never decreased below 50%; binding affinity (fluorescence competitive assay) (SnocOBP9F74A; mutant PHE74 to ALA, Ki could not be calculated): no binding affinity; also recorded: never decreased below 50%; binding affinity (fluorescence competitive assay) (SnocOBP9L116A; mutant LEU116 to ALA, Ki could not be calculated): no binding affinity; also recorded: never decreased below 50% |
